# Data from US11666541B2, “Systems and methods for feeding sugar alcohol to ruminants during periods of heat stress” (PURINA ANIMAL NUTRITION LLC, priority 2012, dated 2023).
# How the values were obtained:
# Format in all cases: in vivo
# [1] = system: heat stressed transition dairy cattle; assay: Example 2: feeding sorbitol to heat stressed transition dairy cattle (about 150 g/d prior to calving, about 125 g/d after), with and without evaporative cooling
# Description: In this example, the dairy cattle were blocked in the same manner as Example 1. During the study, the ambient temperature was between 70 degrees and 85 degrees during 62 percent of study and was greater than 85 degrees during 18 percent of the study.
# After 30 days in milk, all postfresh cows were fed a common diet until 60 days post partum. The nutrient analysis of the total mixed rations for the control and sorbitol diets provided during the study are shown in Table 5C:
# As provided in FIGS. 5A and 5B, sorbitol was provided in a base mix at a rate of 1.5 pounds per day for prefresh dairy cattle (e.g., for 28 days prior to calving) and at a rate of 1.25 pounds per day for post fresh dairy cattle (e.g., for 30 days post-calving).
# From day 30 to day 60, all dairy cattle study groups received the same diet free of sorbitol (see Table 5).
# [2] = system: heat stressed lactating dairy cattle in a post-peak phase of lactation; assay: Example 1: feeding about 100 grams of sorbitol per day to heat stressed lactating dairy cattle in post-peak phase, with and without evaporative cooling
# Description: In the Examples below, statistical analysis was completed for parameters studied such as milk yield, energy corrected milk (ECM), fat corrected milk (FCM), and dry matter intake. A P value of 0.10 means that 10 times out of 100 the results can be explained by factors other than the feeding of sorbitol versus the lack of sorbitol feeding. Likewise, a P value of 0.75 means that 75 times out of 100, the difference in value between the control group and the sorbitol-fed group may be explained by factors other than the feeding of the increased rate(s) of supplemental feed versus the lower rate of feeding of the supplemental feed (e.g., 4 pounds per head per day). For purposes of comparing data in this document, P values of 0.15, or lower, are considered statistically significant. Thus, where a P value of 0.15 or less is returned for particular results, it is assumed that the differing results may be explained by the test regimen, i.e.: the feeding of the increased rate(s) of supplemental feed versus the lower rate of feeding of the supplemental feed (e.g., 4 pounds per head per day). […] In this example, 32 multiparous cows were blocked by production and days in milk into one of two diets, a control diet without sorbitol and a diet with sorbitol, and each treatment group was divided into two cooling treatments. The four treatment groups included 1) a control diet with fans and no mist; 2) a sorbitol-supplemented diet with fans and no mist; 3) a control diet with fans and mist; and 4) a sorbitol-supplemented diet with fans and mist. During the study, the ambient temperature was between 70 degrees and 85 degrees during 51 percent of study and was greater than 85 degrees during 13 percent of the study. Heat stress in the dairy cattle was observed through changes in performance as well as increased respiration rates. Dairy cattle performance and respiration rates for the dairy cattle not receiving mister cooling is compared to dairy cattle receiving mist treatment in Table 1. The sorbitol in the sorbitol-supplemented diets was processed as an extruded pellet and added to other grain concentrates prior to final addition and delivery to the ruminant. [table] [table]
# [3] = system: dairy cattle in mid-lactation; assay: Example 3: feeding sorbitol at about 100 grams per day to dairy cattle in mid-lactation, with and without misters; conditions: for 3.5% FCM / Body Weight / Daily Milk Yield / Dry Matter Intake / ECM / Milk Fat / Milk Protein: about 100 g/day
# Description: 64 dairy cattle were separated into four pens of 16 dairy cattle each pen was provided one of the four treatments described above in connection with Example 1. The treatment groups receiving sorbitol in the diet were provided 1 pound of premix per day during a ten week testing period. During the study, the temperature was between 70 degrees and 85 degrees during […] of study and was greater than 85 degrees during 25 percent of the study. […] [table] [table]
# [4] = day 0 to 30 postpartum, Misters
# [5] = day 0 to 30 postpartum, No Misters
# [6] = day 0 to 60 postpartum (sorbitol-free common diet from day 30), Misters
# [7] = day 0 to 60 postpartum (sorbitol-free common diet from day 30), No Misters
# [8] = about 100 g sorbitol/day, post-peak, pooled across cooling strategies and day
# [9] = sorbitol without mister treatment
smiles,measurement,setting,value
"OC[C@@H](O)[C@@H](O)[C@H](O)[C@@H](O)CO [Sorbitol, sorbitol]","Body Weight, post",[1]; [4],1259 lbs
same,DMI as % BW,[1]; [4],3.05%
same,Daily Milk Yield,[1]; [4],78.7 lbs/d
same,Dry Matter Intake,[1]; [4],37.8 lbs/d
same,ECM,[1]; [4],80.2 lbs/d
same,FCM,[1]; [4],80.7 lbs/d
same,Milk Fat,[1]; [4],3.53%
same,Milk Protein,[1]; [4],2.81%
same,Milk-to-Feed Ratio,[1]; [4],2.08
same,"Body Weight, post",[1]; [5],1232 lbs
same,DMI as % BW,[1]; [5],3.03%
same,Daily Milk Yield,[1]; [5],74.4 lbs/d
same,Dry Matter Intake,[1]; [5],36.8 lbs/d
same,ECM,[1]; [5],75.2 lbs/d
same,FCM,[1]; [5],75.5 lbs/d
same,Milk Fat,[1]; [5],3.42%
same,Milk Protein,[1]; [5],2.81%
same,Milk-to-Feed Ratio,[1]; [5],2.05
same,increase in milk yield compared to the control group without mister treatment,"[1]; day 0 to 30 postpartum, sorbitol and mister treatment",about 11.5 pounds per day
same,increase in milk yield compared to the control group without mister treatment,"[1]; day 0 to 30 postpartum, sorbitol without mister treatment",about 7.2 pounds per day
same,"Body Weight, post",[1]; [6],1261 lbs
same,DMI as % BW,[1]; [6],3.45%
same,Daily Milk Yield,[1]; [6],84.3 lbs/d
same,Dry Matter Intake,[1]; [6],42.9 lbs/d
same,ECM,[1]; [6],79.8 lbs/d
same,FCM,[1]; [6],80.4 lbs/d
same,Milk - to - Feed,[1]; [6],2.00
same,Milk Fat,[1]; [6],3.17%
same,Milk Protein,[1]; [6],2.66%
same,Milk - to - Feed,"[1]; day 0 to 60 postpartum (sorbitol-free common diet from day 30), Misters, listed as sorbitol",2.0
same,"Body Weight, post",[1]; [7],1231 lbs
same,DMI as % BW,[1]; [7],3.32%
same,Daily Milk Yield,[1]; [7],81.2 lbs/d
same,Dry Matter Intake,[1]; [7],41.1 lbs/d
same,ECM,[1]; [7],77.3 lbs/d
same,FCM,[1]; [7],77.7 lbs/d
same,Milk - to - Feed,[1]; [7],1.97
same,Milk Fat,[1]; [7],3.12%
same,Milk Protein,[1]; [7],2.66%
same,increase in milk yield compared to the control group without mister treatment,"[1]; day 0 to 60 postpartum, sorbitol and mister treatment",about 11.3 pounds per day
same,increase in milk yield compared to the control group without mister treatment,"[1]; day 0 to 60 postpartum, sorbitol without mister treatment",about 8.2 pounds per day
same,beta hydroxy butyrate (BHBA) levels (FIG. 4),"[1]; transition phase, sorbitol groups vs control without misters",control group without mister treatment experienced a spike in BHBA levels compared to the sorbitol groups
same,DMI,[2]; [8],24.7 kg/day
same,Daily Milk,[2]; [8],39.4 kg/day
same,ECM,[2]; [8],37.2 kg/day
same,FCM,[2]; [8],36.8 kg/day
same,Fat,[2]; [8],1.23 kg/day
same,"Fat, %",[2]; [8],3.16%
same,Milk to Feed,[2]; [8],1.60
same,Protein,[2]; [8],1.12 kg/day
same,"Protein, %",[2]; [8],2.87%
same,Respiration rates,[2]; [8],63.0
same,"performance: daily milk, ECM, FCM (FIG. 1)",[2]; sorbitol and mister treatment,best overall performance in comparison to all other groups studied
same,milk-to-feed ratio (FIG. 3),[2]; sorbitol group with mister treatment,1.64 kg of milk for every kg of dry matter consumed
same,milk-to-feed ratio (FIG. 3),[2]; sorbitol group without mister treatment,1.55 kg of milk for every kg of dry matter consumed
same,difference in ECM,[2]; sorbitol group without mister treatment vs control group with misters,0.3 kg/day
same,FCM results vs control,[2]; sorbitol with and without mister treatment,performed better than the control group with mister treatment and significantly better than the control group without mister treatment
same,variation of dry matter intake between the two sorbitol groups,[2]; sorbitol with vs without misters,0.4 kg/day
same,ECM results vs control,[2]; [9],performed significantly better than the control group without sorbitol and mister treatment
same,"performance: daily milk, ECM, FCM (FIG. 1)",[2]; [9],performed better than the control group without misters in all performance areas
same,daily dry matter intake (FIG. 2),[2]; the other groups (both sorbitol groups and control without misters) vs 28 for control with misters,25 kg/day
same,3.5% FCM,[3]; Misters,66.7 lbs/d
same,Body Weight,[3]; Misters,1373 lbs
same,Daily Milk Yield,[3]; Misters,73.7 lbs/d
same,Dry Matter Intake,[3]; Misters,49.4 lbs/d
same,ECM,[3]; Misters,68.1 lbs/d
same,Milk Fat,[3]; Misters,2.92%
same,Milk Protein,[3]; Misters,2.92%
same,3.5% FCM,[3]; No Misters,66.0 lbs/d
same,Body Weight,[3]; No Misters,1393 lbs
same,Daily Milk Yield,[3]; No Misters,71.9 lbs/d
same,Dry Matter Intake,[3]; No Misters,51.2 lbs/d
same,ECM,[3]; No Misters,67.3 lbs/d
same,Milk Fat,[3]; No Misters,3.03%
same,Milk Protein,[3]; No Misters,2.92%
same,increase in milk yield compared to the control group without mister treatment,[3]; sorbitol and mister treatment,about 3.5 pounds per day
same,increase in milk yield compared to the control group without mister treatment,[3]; [9],about 1.7 pounds per day
